# Source: patent publication US11766444B2, “Pharmaceutical composition for preventing or treating degenerative brain disorders including HDL-APOM-S1P as active ingredient” (Kyungpook National University Industry-Academic Cooperation …, priority 2017, dated 2023)
# Experiments:
# AD patients = details: cited from earlier work; for delaying cognitive decline compared to placebo: large-scale clinical trial, one year
# astrocytes = experiment: Activity of astrocytes (GFAP staining), neuroinflammatory response; assay type: in vivo, mouse; details: APP/PS1 mice, brain tissue, vs untreated APP/PS1 mice
# Description: (§1) Transgenic mice overexpressing hAPP695swe (APPswe) and presenilin-1M146V (PS1) mutations were used as mouse models of the Alzheimer's disease. These are mouse lines produced by GlaxoSmithKline (Harlow, UK) with the standard technology for C57BL background (Charles River, UK), which double heterozygote mutant mice (APP/PS1 tg mice) were produced by backcrossing APPswe mice with pure C57BL/6 backgrounds and crossing PS1 mice
# (§2) After collecting blood from mice, the obtained blood was separated into erythrocytes and plasma by centrifugation. The separated erythrocytes are reacted with 10 uM sphingosine at 37° C. for 1 hour, and then reacted for 1 hour at 37° C. after mixing again with the separated plasma. […]
# (§3) After fixing the cerebral (especially cortex) and hippocampus of mice with 4% paraformaldehyde, the immobilized tissues were incubated with 0.5% thioflavin S (Sigma-Aldrich) or anti-20G10 against Aβ42 (mouse, 1:1000), anti-G30 against Aβ40 (rabbit, 1:1000), anti-lba-1 (rabbit, 1:500, Wako), and anti-GFAP (rabbit, 1:500, DAKO), respectively. […] The sites were analyzed using a laser scanning confocal microscope or Olympus BX51 microscope equipped with Fluoview SV1000 imaging software (Olympus FV1000, Japan). Metamorph software (Molecular Devices) was used to quantify the percentage of area of stained area to area of total tissue. […]
# APP/PS1 mice = experiment: Morris water maze (MWM) test; assay type: in vivo, mouse; details: 10 days training, probe trial day 11
# Description: as §1
# (§4) After collecting blood from mice, the obtained blood was separated into erythrocytes and plasma by centrifugation. The separated erythrocytes are reacted with 10 uM sphingosine at 37° C. for 1 hour, and then reacted for 1 hour at 37° C. after mixing again with the separated plasma. After completion of the reaction, erythrocytes and plasma were separated by centrifugation, and only the plasma was collected again. The plasma thus obtained was loaded with S1P in HDL (HDL-ApoM-S1P loading), which was illustrated in FIG. 1.
# The plasma solution thus obtained was intravenously injected 25 μl into mice twice a week for 4 weeks (total 8 times) according to the experimental outline shown in FIG. 2. […]
# In order to identify potential effects on learning and memory, Morris water maze (MWM) and fear conditioning experiments were performed according to known methods. […] All experiments were recorded using a charge-coupled device (CCD) camera with video monitor and computer. […]
# [1] = S1P, ApoM, HDL-S1P and HDL-ApoM levels in plasma of APP/PS1 mice after HDL-ApoM-S1P loading; assay type: in vivo, mouse; details: i.v. 25 μl twice a week for 4 weeks (8 times), vs untreated APP/PS1 mice
# Description: as §1, §4
# The plasma solution thus obtained was intravenously injected 25 μl into mice twice a week for 4 weeks (total 8 times) according to the experimental outline shown in FIG. 2. As a control group, 3 μM S1P (Avanti) and […] ApoM (Mybiosource, SEQ ID NO: 1) were injected intravenously with 25 μl in mice twice a week for 4 weeks (eight times in total).
# To collect blood from mouse models (APP/PS1 tg mice or APP/PS1/ApoM tg mice) and normal control mice (WT), the mice were anesthetized first, and 500 μl to 700 μl of blood were collected in heparin tubes (BD Falcon) by cardiac drawing. Each blood sample was then centrifuged at 1,200 rpm for 5 minutes to separate plasma from the supernatant. This plasma sample was stored at −80° C. before being used for analysis.
# 60 μl of plasma sample was placed in the ultrafast centrifuge tube, and then the same amount of PBS (Gibco) solution was added to form a layer on the plasma. A high speed centrifuge (HITACHI cp100wx Centrifuge P70AT rotor) was used to centrifuge at 70,000 rpm for 3 hours at 4° C. 60 μl of the lower layer of the sample separated into two layers was transferred into a new ultra-centrifuge tube. […]
# Extraction and quantification of S1P was performed in the following manner. […] The dried lipid extract was resuspended in 25 μl of 0.2% Igepal CA-630 (Sigma-Aldrich), and the concentration level of each lipid was quantified by the UPLC system using the column ACQUITY BEH Shield RP18 1.7 μm 2.1×50 mm (186002853) and 0.1% of NH4OH.
# Using a commercial ELISA kit (CUSABIO Human ApoM ELISA Kit and Mouse ApoM ELISA Kit), the amount of apolipoprotein M (ApoM) contained in the mouse plasma or HDL fractionated therefrom was quantified according to the manufacturer's protocol. […]
# microglia = experiment: Activity of microglia (Iba1 staining), neuroinflammatory response; assay type: in vivo, mouse; details: APP/PS1 mice, brain tissue, vs untreated APP/PS1 mice
# Description: as §1, §2, §3
# tau = experiment: Tau deposition in brain tissue (AT8 immunofluorescence); assay type: in vivo, mouse; details: APP/PS1 mice, cerebral cortex, vs 9-month-old untreated APP/PS1 mice
# Description: as §1, §2, §3
# amyloid-β = experiment: Amyloid-β deposition in brain tissue (cerebral cortex), thioflavin S staining and immunofluorescence; assay type: in vivo, mouse; details: APP/PS1 mice, vs 9-month-old untreated APP/PS1 mice
# Description: as §1, §2, §3
structure (smiles),measurement,setting,value
CS(=O)(=O)Nc1ccc([N+](=O)[O-])cc1Oc1ccccc1 [nimesulide],rate of cognitive change,"AD patients; AD patients, small 24-week studies",no significant difference
C[C@]12C=CC(=O)C=C1CC[C@@H]1[C@@H]2C(=O)C[C@@]2(C)[C@H]1CC[C@]2(O)C(=O)CO [prednisone],"cognitive decline, treatment vs placebo groups",AD patients; low doses for one year,no difference
COc1ccc2cc([C@H](C)C(=O)O)ccc2c1 [naproxen],delaying cognitive decline compared to placebo,AD patients,not effective
CCN(CCO)CCCC(C)Nc1ccnc2cc(Cl)ccc12 (centres unmarked) [hydroxychloroquine],preventing memory degradation,AD patients; 18-month experiment,no protective effect
"CCCCCCCCCCCCC/C=C/[C@@H](O)[C@@H](N)COP(=O)(O)O [S1P, Sphingosine-1-Phosphate]",inflammatory activity of astrocytes,astrocytes,no significant difference
same,"learning and memory (spatial memory formation), MWM",APP/PS1 mice,severe impairment
same,level of ApoM in plasma,[1],did not show a difference
same,level of HDL-ApoM in the HDL fraction,[1],did not show a difference
same,level of HDL-S1P in the HDL fraction,[1],did not show a difference
same,level of S1P in plasma,[1],did not show a difference
same,inflammatory activity of microglia,microglia,no significant difference
same,tau deposition (AT8) in brain tissue,tau,did not show a significant difference
same,Aβ40 deposition in brain tissue,amyloid-β,did not show a significant difference
same,Aβ42 deposition in brain tissue,amyloid-β,did not show a significant difference
O=C(O)Cc1ccccc1Nc1c(Cl)cccc1Cl [diclofenac],index of cognitive decline vs placebo,"AD patients; mild to moderate AD patients, diclofenac in combination with misoprostol, after 25 weeks",no significant difference
CS(=O)(=O)c1ccc(C2=C(c3ccccc3)C(=O)OC2)cc1 [rofecoxib],delaying cognitive decline compared to placebo,AD patients,not effective
same,efficacy in mild to moderate AD patients,AD patients; trial for 1 year,ineffective
